Reference: patent publication US11510899B2, “RTX toxin production inhibitor and composition for treating symptom of vibrio infection by using same” (priority 2018, dated 2022)

How the values were obtained:
[1] = tested on: exsA, va11668, vopQ, vopS and vopR; assay: qRT-PCR of exsA and T3SS genes in Vibrio alginolyticus; assay type: cell-based; details: 20 μM, A600=0.5, vs 2% DMSO
Procedure: Vibrio alginolyticus is also a pathogenic Vibrio bacterium that has T3SS and is cytotoxic, similar to Vibrio parahaemolyticus. In order to determine the toxin inhibition effect of CM2660 in Vibrio alginolyticus, Vibrio alginolyticus was cultured in TSB (tryptic soy broth) medium supplemented with 1% NaCl.

[2] = In-vivo toxicity of CM2660 injected alone; details: subcutaneous, ICR female mice
Procedure: In order to determine whether or not CM2660 also decreases the virulence of Vibrio vulnificus in vivo using 7-week-old ICR female mice, Vibrio vulnificus cultured at A600=0.5 at 30° C. was prepared. This was mixed with DMSO (10%) or CM2660 (1.4 mg/kg of mouse body weight) and the resulting mixture was subcutaneously injected into the back of mice anesthetized with isoflurane. In addition, only CM2660 was injected subcutaneously in order to determine the in-vivo toxicity of CM2660 (FIG. 22). FIG. 22 is a graph showing the results of observation of the expression of in-vivo toxicity of Vibrio vulnificus after injecting CM2660 into mice.

O=C(C#Cc1ccccc1)Nc1scc2c1c(=O)oc1ccccc12 [CM2660, N-(4-oxo-4H-thieno[3,4-c]chromen-3-yl)-3-phenylprop-2-ynamide]
significantly reduced: exsA mRNA level [1] | va11668 mRNA level [1] | vopQ mRNA level [1] | vopR mRNA level [1] | vopS mRNA level [1]
did not show in-vivo toxicity: in-vivo toxicity (survival after CM2660 alone) [2]
